Laboratory results published in patent publication US10000500B2 (PROMEGA CORPORATION, priority 2016, dated 2018).

Target: NANOLUC® Luciferase (Oplophorus gracilirostris, UniProt Q9GV45, A31E/A60N/A81I/F95D/I117V/K70R/L54V/L99Q/M102K/N193R/P142E/Q151K/Q38R/Q45L/V71I/Y165I)
Experiment: Km and Vmax substrate titration with NanoLuc luciferase (Example 8)
Assay type: biochemical
Settings: NanoLuc 4 ng/ml; Renilla Glo buffer; Michaelis-Menten fit
Description: Each compound to be screened was diluted to a concentration of 100 uM in Renilla Glo Luciferase Assay buffer (Promega Corporation) and then further diluted to 2×serial dilution in Renilla Glo Luciferase Assay Buffer. NANOLUC® luciferase and Renilla luciferase were diluted to a concentration of 4 ng/ml in OptiMEM+0.1% FBS. 50 ul of each compound dilution was then mixed with 50 ul of each enzyme dilution and incubated for 1 minute at room temperature. Light output for each compound was measured on a GLOMAX®-Multi+ luminometer. Km and Vmax were calculated for each enzyme/substrate combination using a GraphPad Prism Michaelis-Menten non-linear fit (FIGS. 1A-ID).

Sequence of NANOLUC® Luciferase (Q9GV45 28-196 with tags or gaps with the stated changes limits assumed): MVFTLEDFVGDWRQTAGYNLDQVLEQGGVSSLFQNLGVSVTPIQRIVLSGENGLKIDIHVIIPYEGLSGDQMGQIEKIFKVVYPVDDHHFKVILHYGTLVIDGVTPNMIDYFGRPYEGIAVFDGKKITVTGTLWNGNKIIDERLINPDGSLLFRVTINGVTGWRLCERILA

Compound: O=c1c(Cc2ccco2)nc2c(Cc3ccccc3)[nH]c(-c3ccccc3)cn1-2 [Furimazine, 8-benzyl-2-(furan-2-ylmethyl)-6-phenylimidazo[1,2-a]pyrazin-3(7H)-one]
- Km: 9.37 µM
